Five molecules from the supplement of paper PMC10307832 can be followed below.

The test system of the first assay is NCI-H838. The assay is described as follows: relative viability (nuclei count vs DMSO), 5 days (fraction); higher = more cells survive. As to conditions: first compound 0.2 µM. The method, boiled down: (§1)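 Relative viability was taken as the ratio of nuclei in treated wells to nuclei in vehicle wells. Lung cancer cell lines in 1536-well plates received compounds by pin tool one day after seeding, either one drug alone or a fixed anchor-drug dose plus five library-drug doses (not always all listed) in √10 steps. Nuclei were counted on 4× images after 5 days of treatment, and values are medians of duplicate plates.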
With `COCC1(CO)C(=O)C2CCN1CC2` (centres undefined) [PRIMA-1MET] + COc1cccc2cc(-c3nc([C@H]4CC[C@H](C(=O)O)CC4)n4ncnc(N)c34)[nH]c12 [OSI-027] (partner 0.5 µM), the relative viability is 0.428.
For the molecule `COCC1(CO)C(=O)C2CCN1CC2` (centres undefined) [PRIMA-1MET] + N=C(N)NC(=N)NCCc1ccccc1 [Phenformin] (partner 250 µM), the relative viability was 0.574.
Same read-out and setting: the result for `COCC1(CO)C(=O)C2CCN1CC2` (centres undefined) [PRIMA-1MET] + Cc1nc(Nc2ncc(C(=O)Nc3c(C)cccc3Cl)s2)cc(N2CCN(CCO)CC2)n1 [Dasatinib] (partner 0.075 µM) reads 0.31.

Still in this assay, the particulars now being: first compound 0.6325 µM.
Molecule `COCC1(CO)C(=O)C2CCN1CC2` (centres undefined) [PRIMA-1MET] + Cc1cc(Nc2cc(N3CCN(C)CC3)nc(Sc3ccc(NC(=O)C4CC4)cc3)n2)n[nH]1 [Tozasertib] (partner 0.1 µM) yielded a relative viability of 0.286.
As for `COCC1(CO)C(=O)C2CCN1CC2` (centres undefined) [PRIMA-1MET] + COc1cc2c(Oc3ccc(NC(=O)C4(C(=O)Nc5ccc(F)cc5)CC4)cc3F)ccnc2cc1OCCCN1CCOCC1 [Foretinib] (partner 0.25 µM), the relative viability was 0.822.
In turn, `COCC1(CO)C(=O)C2CCN1CC2` (centres undefined) [PRIMA-1MET] + COc1cccc2cc(-c3nc([C@H]4CC[C@H](C(=O)O)CC4)n4ncnc(N)c34)[nH]c12 [OSI-027] (partner 0.5 µM) yielded a relative viability of 0.5.
The molecule `COCC1(CO)C(=O)C2CCN1CC2` (centres undefined) [PRIMA-1MET] + N=C(N)NC(=N)NCCc1ccccc1 [Phenformin] (partner 250 µM) registered a relative viability of 0.535.
In turn, `COCC1(CO)C(=O)C2CCN1CC2` (centres undefined) [PRIMA-1MET] + Cc1nc(Nc2ncc(C(=O)Nc3c(C)cccc3Cl)s2)cc(N2CCN(CCO)CC2)n1 [Dasatinib] (partner 0.075 µM) gave a relative viability of 0.279.

Staying with this assay, now noted: first compound 2 µM.
`COCC1(CO)C(=O)C2CCN1CC2` (centres undefined) [PRIMA-1MET] + Cc1cc(Nc2cc(N3CCN(C)CC3)nc(Sc3ccc(NC(=O)C4CC4)cc3)n2)n[nH]1 [Tozasertib] (partner 0.1 µM) had a relative viability of 0.245.
In turn, `COCC1(CO)C(=O)C2CCN1CC2` (centres undefined) [PRIMA-1MET] + COc1cc2c(Oc3ccc(NC(=O)C4(C(=O)Nc5ccc(F)cc5)CC4)cc3F)ccnc2cc1OCCCN1CCOCC1 [Foretinib] (partner 0.25 µM) returned a relative viability of 1.02.
In the case of `COCC1(CO)C(=O)C2CCN1CC2` (centres undefined) [PRIMA-1MET] + COc1cccc2cc(-c3nc([C@H]4CC[C@H](C(=O)O)CC4)n4ncnc(N)c34)[nH]c12 [OSI-027] (partner 0.5 µM), the relative viability worked out at 0.295.
On the same count and under the same terms, then `COCC1(CO)C(=O)C2CCN1CC2` (centres undefined) [PRIMA-1MET] + N=C(N)NC(=N)NCCc1ccccc1 [Phenformin] (partner 250 µM), with 0.451.

Still in this assay, the particulars now being: first compound 6.325 µM.
`COCC1(CO)C(=O)C2CCN1CC2` (centres undefined) [PRIMA-1MET] + Cc1cc(Nc2cc(N3CCN(C)CC3)nc(Sc3ccc(NC(=O)C4CC4)cc3)n2)n[nH]1 [Tozasertib] (partner 0.1 µM) displayed a relative viability of 0.293.
Still for that read-out and setting: the result for `COCC1(CO)C(=O)C2CCN1CC2` (centres undefined) [PRIMA-1MET] + COc1cc2c(Oc3ccc(NC(=O)C4(C(=O)Nc5ccc(F)cc5)CC4)cc3F)ccnc2cc1OCCCN1CCOCC1 [Foretinib] (partner 0.25 µM) reads 1.07.
As for `COCC1(CO)C(=O)C2CCN1CC2` (centres undefined) [PRIMA-1MET] + COc1cccc2cc(-c3nc([C@H]4CC[C@H](C(=O)O)CC4)n4ncnc(N)c34)[nH]c12 [OSI-027] (partner 0.5 µM), the relative viability came out at 0.395.
With `COCC1(CO)C(=O)C2CCN1CC2` (centres undefined) [PRIMA-1MET] + N=C(N)NC(=N)NCCc1ccccc1 [Phenformin] (partner 250 µM), the relative viability was 0.712.
Consider `COCC1(CO)C(=O)C2CCN1CC2` (centres undefined) [PRIMA-1MET] + Cc1nc(Nc2ncc(C(=O)Nc3c(C)cccc3Cl)s2)cc(N2CCN(CCO)CC2)n1 [Dasatinib] (partner 0.075 µM), for which the relative viability was determined as 0.279.

Still in this assay, the particulars now being: first compound 20 µM.
`COCC1(CO)C(=O)C2CCN1CC2` (centres undefined) [PRIMA-1MET] + Cc1cc(Nc2cc(N3CCN(C)CC3)nc(Sc3ccc(NC(=O)C4CC4)cc3)n2)n[nH]1 [Tozasertib] (partner 0.1 µM) came in with a relative viability of 0.194.
Regarding `COCC1(CO)C(=O)C2CCN1CC2` (centres undefined) [PRIMA-1MET] + COc1cc2c(Oc3ccc(NC(=O)C4(C(=O)Nc5ccc(F)cc5)CC4)cc3F)ccnc2cc1OCCCN1CCOCC1 [Foretinib] (partner 0.25 µM), the relative viability is 0.683.
On the same count and under the same terms, the result for `COCC1(CO)C(=O)C2CCN1CC2` (centres undefined) [PRIMA-1MET] + COc1cccc2cc(-c3nc([C@H]4CC[C@H](C(=O)O)CC4)n4ncnc(N)c34)[nH]c12 [OSI-027] (partner 0.5 µM) reads 0.0935; that for `COCC1(CO)C(=O)C2CCN1CC2` (centres undefined) [PRIMA-1MET] + N=C(N)NC(=N)NCCc1ccccc1 [Phenformin] (partner 250 µM), 0.0931; that for `COCC1(CO)C(=O)C2CCN1CC2` (centres undefined) [PRIMA-1MET] + Cc1nc(Nc2ncc(C(=O)Nc3c(C)cccc3Cl)s2)cc(N2CCN(CCO)CC2)n1 [Dasatinib] (partner 0.075 µM), 0.456.

The next assay has as its system HCC-366. The description is as above. The following applies: first compound 0.2 µM. The method, boiled down: as §1
As for `COCC1(CO)C(=O)C2CCN1CC2` (centres undefined) [PRIMA-1MET] + Cc1cc(Nc2cc(N3CCN(C)CC3)nc(Sc3ccc(NC(=O)C4CC4)cc3)n2)n[nH]1 [Tozasertib] (partner 0.1 µM), the relative viability came to 0.109.
Regarding `COCC1(CO)C(=O)C2CCN1CC2` (centres undefined) [PRIMA-1MET] + COc1cc2c(Oc3ccc(NC(=O)C4(C(=O)Nc5ccc(F)cc5)CC4)cc3F)ccnc2cc1OCCCN1CCOCC1 [Foretinib] (partner 0.25 µM), the relative viability stood at 0.84.
In turn, `COCC1(CO)C(=O)C2CCN1CC2` (centres undefined) [PRIMA-1MET] + COc1cccc2cc(-c3nc([C@H]4CC[C@H](C(=O)O)CC4)n4ncnc(N)c34)[nH]c12 [OSI-027] (partner 0.5 µM) yielded a relative viability of 0.389.
In turn, `COCC1(CO)C(=O)C2CCN1CC2` (centres undefined) [PRIMA-1MET] + N=C(N)NC(=N)NCCc1ccccc1 [Phenformin] (partner 250 µM) registered a relative viability of 0.651.
Turning to `COCC1(CO)C(=O)C2CCN1CC2` (centres undefined) [PRIMA-1MET] + Cc1nc(Nc2ncc(C(=O)Nc3c(C)cccc3Cl)s2)cc(N2CCN(CCO)CC2)n1 [Dasatinib] (partner 0.075 µM), the relative viability came to 0.854.

The same assay, now with this note: first compound 0.6325 µM.
Turning to `COCC1(CO)C(=O)C2CCN1CC2` (centres undefined) [PRIMA-1MET] + Cc1cc(Nc2cc(N3CCN(C)CC3)nc(Sc3ccc(NC(=O)C4CC4)cc3)n2)n[nH]1 [Tozasertib] (partner 0.1 µM), the relative viability came to 0.107.
Consider `COCC1(CO)C(=O)C2CCN1CC2` (centres undefined) [PRIMA-1MET] + COc1cc2c(Oc3ccc(NC(=O)C4(C(=O)Nc5ccc(F)cc5)CC4)cc3F)ccnc2cc1OCCCN1CCOCC1 [Foretinib] (partner 0.25 µM), for which the relative viability was found to be 0.946.
